Reference: patent US6737383B1, “Herbicidal oxadiazolidines” (priority 1999, dated 2004)

Tests used:
smallflower flatsedge = test: Test B flood test smallflower flatsedge; assay type: in vivo, Cyperus difformis
How it was run: (§1)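 Plants were grown to the 2-leaf stage before treatment with test chemical, then held in a greenhouse for twelve to sixteen days. Injury was visually rated against untreated controls on a 0–10 scale, where 0 is no effect and 10 is complete control.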

rice = test: Test B flood test rice; assay type: in vivo, Oryza sativa
How it was run: as §1

purple nutsedge = test: Test B pre/postemergence purple nutsedge; assay type: in vivo, Cyperus rotundus; conditions: Preemergence
How it was run: (§2)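 Test chemicals in a non-phytotoxic solvent mixture with surfactant were sprayed preemergence onto planted seeds and postemergence onto plants 2 to 18 cm tall (1- to 4-leaf stage). After twelve to sixteen days in a greenhouse, injury was visually rated against untreated controls from 0 (no effect) to 10 (complete control).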

soybean = test: Test B pre/postemergence soybean; assay type: in vivo, Glycine max; conditions: Preemergence
How it was run: as §2

morningglory = test: Test B pre/postemergence morningglory; assay type: in vivo, Ipomoea hederacea; conditions: Preemergence
How it was run: as §2

wheat = test: Test B pre/postemergence wheat; assay type: in vivo, Triticum aestivum; conditions: Preemergence
How it was run: as §2

bedstraw = test: Test B pre/postemergence bedstraw; assay type: in vivo, Galium aparine; conditions: Preemergence
How it was run: as §2

giant foxtail = test: Test B pre/postemergence giant foxtail; assay type: in vivo, Setaria faberii; conditions: Preemergence
How it was run: as §2

rape = test: Test B pre/postemergence rape; assay type: in vivo, Brassica napus; conditions: Preemergence
How it was run: as §2

pigweed = test: Test B pre/postemergence pigweed; assay type: in vivo, Amaranthus retroflexus; conditions: Preemergence
How it was run: as §2

crabgrass = test: Test B pre/postemergence crabgrass; assay type: in vivo, Digitaria sanguinalis; conditions: Preemergence
How it was run: as §2

corn = test: Test B pre/postemergence corn; assay type: in vivo, Zea mays; conditions: Preemergence
How it was run: as §2

blackgrass = test: Test B pre/postemergence blackgrass; assay type: in vivo, Alopecurus myosuroides; conditions: Preemergence
How it was run: as §2

wild oat = test: Test B pre/postemergence wild oat; assay type: in vivo, Avena fatua; conditions: Preemergence
How it was run: as §2

surinam grass = test: Test B pre/postemergence surinam grass; assay type: in vivo, Brachiaria decumbens; conditions: Preemergence
How it was run: as §2

cocklebur = test: Test B pre/postemergence cocklebur; assay type: in vivo, Xanthium strumarium; conditions: Preemergence
How it was run: as §2

sugar beet = test: Test B pre/postemergence sugar beet; assay type: in vivo, Beta vulgaris; conditions: Preemergence
How it was run: as §2

bamyardgrass = test: Test B flood test barnyardgrass; assay type: in vivo, Echinochloa crus-galli
How it was run: as §1

duck salad = test: Test B flood test duck salad; assay type: in vivo, Heteranthera limosa
How it was run: as §1

velvetleaf = test: Test B pre/postemergence velvetleaf; assay type: in vivo, Abutilon theophrasti; conditions: Preemergence
How it was run: as §2

[1] = Pre-emergence, Rate 62 g/ha, scale 0 to 10, 0 is no effect, 10 is complete control
[2] = Rate 125 g/ha, Pre-emergence section (flood test species), scale 0 to 10, 0 no effect, 10 complete control
[3] = Rate 250 g/ha, Pre-emergence (flood test species), scale 0 to 10, 0 is no effect, 10 is complete control
[4] = Rate 500 g/ha, Pre-emergence section of Table B, 0 to 10 scale (0 no effect, 10 complete control)
[5] = Rate 125 g/ha, scale of 0 to 10 where 0 is no effect and 10 is complete control
[6] = Rate 500 g/ha, scale 0 to 10 (0 no effect, 10 complete control)
[7] = Rate 62 g/ha, scale of 0 to 10 where 0 is no effect and 10 is complete control
[8] = Rate 250 g/ha, scale 0 (no effect) to 10 (complete control)

## CC(C)N(C(=O)n1oc(=O)n(C(C)C2CC2)c1=O)c1ccc(F)cc1F (centres unmarked) [Compound 720]
Smallflower flatsedge; [1]
  S. Flatsedge plant response rating: 0
Smallflower flatsedge; [2]
  S. Flatsedge plant response rating: 0
Smallflower flatsedge; [3]
  S. Flatsedge plant response rating: 0
Smallflower flatsedge; [4]
  S. Flatsedge plant response rating: 0
rice; [1]
  Rice plant response rating: 0
rice; [2]
  Rice plant response rating: 0
rice; [3]
  Rice plant response rating: 0
rice; [4]
  Rice plant response rating: 0
Purple nutsedge; [5]
  Plant response rating, Nutsedge: 0
Purple nutsedge; [6]
  Nutsedge plant response rating: 0
soybean; [7]
  Soybean plant response rating: 0
soybean; [5]
  Plant response rating, Soybean: 0
soybean; [8]
  Soybean plant response rating: 0
soybean; [6]
  Soybean plant response rating: 0
morningglory; [7]
  Morningglory plant response rating: 0
morningglory; [5]
  Plant response rating, Morningglory: 0
morningglory; [6]
  Morningglory plant response rating: 2
wheat; [7]
  Wheat plant response rating: 0
wheat; [5]
  Plant response rating, Wheat: 0
wheat; [8]
  Wheat plant response rating: 5
wheat; [6]
  Wheat plant response rating: 5
bedstraw; [5]
  Plant response rating, Bedstraw: 10
bedstraw; [8]
  Bedstraw plant response rating: 10
bedstraw; [6]
  Bedstraw plant response rating: 10
Giant foxtail; [7]
  Giant foxtail plant response rating: 9
Giant foxtail; [5]
  Plant response rating, Giant foxtail: 10
Giant foxtail; [8]
  Giant foxtail plant response rating: 10
Giant foxtail; [6]
  Giant foxtail plant response rating: 10
rape; [7]
  Rape plant response rating: 6
rape; [5]
  Plant response rating, Rape: 7
rape; [8]
  Rape plant response rating: 9
rape; [6]
  Rape plant response rating: 9
pigweed; [7]
  Redroot pigweed plant response rating: 8
pigweed; [5]
  Plant response rating, Redroot pigweed: 9
pigweed; [8]
  Redroot pigweed plant response rating: 10
pigweed; [6]
  Redroot pigweed plant response rating: 10
crabgrass; [7]
  Crabgrass plant response rating: 9
crabgrass; [5]
  Plant response rating, Crabgrass: 9
crabgrass; [8]
  Crabgrass plant response rating: 10
crabgrass; [6]
  Crabgrass plant response rating: 10
corn; [7]
  Corn plant response rating: 0
corn; [5]
  Plant response rating, Corn: 2
corn; [8]
  Corn plant response rating: 4
blackgrass; [7]
  Blackgrass plant response rating: 9
blackgrass; [5]
  Plant response rating, Blackgrass: 9
blackgrass; [8]
  Blackgrass plant response rating: 10
blackgrass; [6]
  Blackgrass plant response rating: 10
Wild oat; [7]
  Wild oats plant response rating: 7
Wild oat; [5]
  Plant response rating, Wild oats: 8
Wild oat; [8]
  Wild oats plant response rating: 9
Wild oat; [6]
  Wild oats plant response rating: 9
Surinam grass; [7]
  B. signalgrass plant response rating: 8
Surinam grass; [5]
  Plant response rating, B. signalgrass: 9
Surinam grass; [8]
  B. signalgrass plant response rating: 10
Surinam grass; [6]
  B. signalgrass plant response rating: 10
cocklebur; [7]
  Cocklebur plant response rating: 0
cocklebur; [5]
  Plant response rating, Cocklebur: 0
cocklebur; [8]
  Cocklebur plant response rating: 0
Sugar beet; [7]
  Sugarbeets plant response rating: 4
Sugar beet; [5]
  Plant response rating, Sugarbeets: 6
Sugar beet; [8]
  Sugarbeets plant response rating: 8
Sugar beet; [6]
  Sugarbeets plant response rating: 8
bamyardgrass; [1]
  Barnyardgrass plant response rating: 0
bamyardgrass; [2]
  Barnyardgrass plant response rating: 0
bamyardgrass; [3]
  Barnyardgrass plant response rating: 0
bamyardgrass; [4]
  Barnyardgrass plant response rating: 0
Duck salad; [1]
  Ducksalad plant response rating: 0
Duck salad; [2]
  Ducksalad plant response rating: 0
Duck salad; [3]
  Ducksalad plant response rating: 0
Duck salad; [4]
  Ducksalad plant response rating: 0
velvetleaf; [7]
  Velvetleaf plant response rating: 1
velvetleaf; [5]
  Plant response rating, Velvetleaf: 2
velvetleaf; [8]
  Velvetleaf plant response rating: 3
velvetleaf; [6]
  Velvetleaf plant response rating: 3
